Values of other authors as cited in US20110280834A1, “METHODS AND COMPOSITIONS FOR CARDIAC TISSUE REGENERATION” (priority 2009, published 2011).

Settings: rat, in vivo, ip, 70 umol/kg

In the case of `O=c1[nH]c(=O)n([C@H]2C[C@H](O)[C@@H](CO)O2)cc1Br` [BrdU], the half-life is listed as 2 h.
